Read-outs that look alike come from different tables or passages of the source.
Key:
[1] = target: human recombinant dopamine D1 receptor (Homo sapiens, UniProt P21728); assay: Dopamine D1 receptor binding, [3H]SCH 23390 displacement; conditions: for inhibition at 0.1 µM: read-out: D1 % inhibition
[2] = target: human recombinant dopamine D2 short receptor (Homo sapiens, UniProt P14416); assay: Dopamine D2 receptor binding, [3H]7-OH-DPAT displacement; conditions: for inhibition at 0.1 µM: read-out: D2 % inhibition
[3] = target: T1, human recombinant 5-HT transporter (SERT) (Homo sapiens, UniProt P31645); assay: biochemical; type: binding; conditions: for inhibition at 0.1 µM / inhibition at 0.2 µM: read-out: SERT % inhibition
T1 construct: host or cells: CHO-S / SERT (h), cell membrane homogenates

[4] = target: T2, human full-length recombinant serotonin 5-HT2A receptors (Homo sapiens, UniProt P28223); assay: biochemical; type: binding; conditions: for inhibition at 0.1 µM: read-out: 5-HT2A % inhibition
T2 construct: human full-length recombinant serotonin 5-HT2A receptors expressed in HEK-293E cells

[5] = inhibition at 100 nM, NI = no inhibition

T1 sequence (P31645 whole entry): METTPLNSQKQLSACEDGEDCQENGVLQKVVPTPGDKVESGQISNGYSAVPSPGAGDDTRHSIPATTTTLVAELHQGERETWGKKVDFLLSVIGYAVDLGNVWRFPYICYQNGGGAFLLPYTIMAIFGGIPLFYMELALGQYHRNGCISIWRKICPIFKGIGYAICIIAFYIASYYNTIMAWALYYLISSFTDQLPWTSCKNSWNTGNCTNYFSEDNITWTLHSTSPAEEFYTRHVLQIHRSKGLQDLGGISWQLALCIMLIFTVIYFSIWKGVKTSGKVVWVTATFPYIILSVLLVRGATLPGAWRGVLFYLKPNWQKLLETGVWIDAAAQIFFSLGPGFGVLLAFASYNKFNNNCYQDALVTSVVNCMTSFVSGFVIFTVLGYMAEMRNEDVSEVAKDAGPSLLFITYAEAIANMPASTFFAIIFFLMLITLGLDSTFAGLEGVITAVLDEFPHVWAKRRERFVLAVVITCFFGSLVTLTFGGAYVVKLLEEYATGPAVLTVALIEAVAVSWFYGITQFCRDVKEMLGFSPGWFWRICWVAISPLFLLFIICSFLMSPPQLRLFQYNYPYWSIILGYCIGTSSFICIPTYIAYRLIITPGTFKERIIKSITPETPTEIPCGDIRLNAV
Chain of human recombinant dopamine D2 short receptor (P14416 1-414 isoform P14416-2): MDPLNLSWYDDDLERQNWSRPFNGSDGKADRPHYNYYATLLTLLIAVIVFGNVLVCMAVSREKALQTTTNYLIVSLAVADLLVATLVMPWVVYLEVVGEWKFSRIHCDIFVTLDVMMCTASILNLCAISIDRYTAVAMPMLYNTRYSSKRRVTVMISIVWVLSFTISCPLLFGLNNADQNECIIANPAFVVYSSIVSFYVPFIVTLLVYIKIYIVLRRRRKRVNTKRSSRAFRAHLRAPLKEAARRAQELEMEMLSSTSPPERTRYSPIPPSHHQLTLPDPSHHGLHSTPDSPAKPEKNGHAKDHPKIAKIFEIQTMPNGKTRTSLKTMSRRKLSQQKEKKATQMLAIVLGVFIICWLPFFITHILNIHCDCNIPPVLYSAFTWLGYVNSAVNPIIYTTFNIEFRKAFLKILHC
T2 sequence (P28223 whole entry): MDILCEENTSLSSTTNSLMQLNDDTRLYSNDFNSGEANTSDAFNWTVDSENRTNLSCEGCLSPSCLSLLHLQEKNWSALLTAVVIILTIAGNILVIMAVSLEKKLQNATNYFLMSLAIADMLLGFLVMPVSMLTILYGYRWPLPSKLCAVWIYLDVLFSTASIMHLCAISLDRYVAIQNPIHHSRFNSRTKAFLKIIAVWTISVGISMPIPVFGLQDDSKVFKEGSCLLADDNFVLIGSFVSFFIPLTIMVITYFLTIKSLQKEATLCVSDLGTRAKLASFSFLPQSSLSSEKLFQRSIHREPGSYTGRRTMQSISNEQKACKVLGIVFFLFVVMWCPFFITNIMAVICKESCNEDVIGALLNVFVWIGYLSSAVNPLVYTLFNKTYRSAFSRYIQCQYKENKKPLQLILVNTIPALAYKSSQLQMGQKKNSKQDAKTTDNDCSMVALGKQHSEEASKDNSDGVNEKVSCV
Chain of human recombinant dopamine D1 receptor (P21728 whole entry): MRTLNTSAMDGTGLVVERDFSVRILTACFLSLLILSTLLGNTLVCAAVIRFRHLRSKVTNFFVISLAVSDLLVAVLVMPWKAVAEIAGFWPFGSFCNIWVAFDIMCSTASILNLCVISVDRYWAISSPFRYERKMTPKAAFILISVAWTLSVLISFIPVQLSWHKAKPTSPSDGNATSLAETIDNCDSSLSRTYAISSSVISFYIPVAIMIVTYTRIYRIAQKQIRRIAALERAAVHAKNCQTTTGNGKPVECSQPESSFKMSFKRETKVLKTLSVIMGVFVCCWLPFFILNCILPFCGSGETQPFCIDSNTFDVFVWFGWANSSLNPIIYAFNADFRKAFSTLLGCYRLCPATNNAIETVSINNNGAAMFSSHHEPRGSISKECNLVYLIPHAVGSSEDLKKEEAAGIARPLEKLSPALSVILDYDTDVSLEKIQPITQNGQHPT

Structure (SMILES)	inhibition at 0.1 µM [1, 5] [%]	inhibition at 0.1 µM [2, 5] [%]	inhibition at 0.1 µM [3] [%]	inhibition at 0.1 µM [4] [%]	inhibition at 0.2 µM [3] [%]	further results
O=C1CN2c3c(cccc3[C@@H]3CN(CCCOc4ccc(OCc5ccccc5)cc4)CC[C@@H]32)N1 [compound 35, (6bR,10aS)-8-(3-(4-(Benzyloxy)phenoxy)propyl)-6b,7,8,9,10,10a-hexahydro-1H-pyrido[3′,4′:4,5]-pyrrolo[1,2,3-de]quinoxalin-2(3H)-one]	4.6	23	68	76	–	–
O=C1CN2c3c(cccc3[C@@H]3CN(CCCOc4ccccc4F)CC[C@@H]32)N1 [compound 36, (6bR,10aS)-8-(3-(2-Fluorophenoxy)propyl)-6b,7,8,9,10,10a-hexahydro-1H-pyrido[3′,4′:4,5]pyrrolo[1,2,3-de]quinoxalin-2(3H)-one]	18	28	5.1	87	–	–
O=C1CN2c3c(cccc3[C@@H]3CN(CCCOc4cccc(F)c4)CC[C@@H]32)N1 [compound 37, (6bR,10aS)-8-(3-(3-Fluorophenoxy)propyl)-6b,7,8,9,10,10a-hexahydro-1H-pyrido[3′,4′:4,5]pyrrolo[1,2,3-de]quinoxalin-2(3H)-one]	32	14	7.7	78	–	–
NC(=O)c1cc(F)ccc1OCCCN1CC[C@H]2[C@@H](C1)c1cccc3c1N2CC(=O)N3 [compound 38, 5-Fluoro-2-(3-((6bR,10aS)-2-oxo-2,3,6b,9,10,10a-hexahydro-1H-pyrido[3′,4′:4,5]pyrrolo[1,2,3-de]quinoxalin-8(7H)-yl)propoxy)benzamide]	< 0	< 0	9.6	14	–	–
O=C1CN2c3c(cccc3[C@@H]3CN(CCCOc4ccc(F)c(F)c4)CC[C@@H]32)N1 [compound 39, (6bR,10aS)-8-(3-(3,4-Difluorophenoxy)propyl)-6b,7,8,9,10,10a-hexahydro-1H-pyrido[3′,4′:4,5]pyrrolo-[1,2,3-de]quinoxalin-2(3H)-one]	–	–	–	71	15	D1(Ki or (% Inhibition)): % inhibition [1]: 232 (15%); Ki [1]: 232 nM; inhibition at 0.1 µM [1]: 15%; D2(Ki or (% Inhibition)): % inhibition [2]: 1620 (7%); Ki [2]: 1620 nM; inhibition at 0.1 µM [2]: 7%; Ki [3]: 508 nM; SERT (Ki or (% Inhibition)): % inhibition [3]: 508 (15%); 5-HT2A (Ki or (% Inhibition)): % inhibition [4]: 16.1 (71%); Ki [4]: 16.1 nM; fold reduction of affinity to 5-HT2A receptors [4]: approximately 6 fold
Cc1cc(F)cc(C)c1OCCCN1CC[C@H]2[C@@H](C1)c1cccc3c1N2CC(=O)N3 [compound 43, (6bR,10aS)-8-(3-(4-Fluoro-2,6-dimethylphenoxy)propyl)-6b,7,8,9,10,10a-hexahydro-1H-pyrido[3′,4′:4,5]-pyrrolo[1,2,3-de]quinoxalin-2(3H)-one]	–	–	–	40	34	inhibition at 0.1 µM [1]: < 0%; inhibition at 0.1 µM [2]: < 0%
O=C1CN2c3c(cccc3[C@@H]3CN(CCCS(=O)(=O)c4ccc(F)cc4)CC[C@@H]32)N1 [compound 46, (6bR,10aS)-8-(3-((4-Fluorophenyl)sulfonyl)propyl)-6b,7,8,9,10,10a-hexahydro-1H-pyrido[3′,4′:4,5]-pyrrolo-[1,2,3-de]quinoxalin-2(3H)-one]	< 0	< 0	–	33	< 0	–
CN(CCCN1CC[C@H]2[C@@H](C1)c1cccc3c1N2CC(=O)N3)c1ccc(F)cc1 [compound 48, (6bR,10aS)-8-(3-((4-Fluorophenyl)(methyl)amino)propyl)-6b,7,8,9,10,10a-hexahydro-1H-pyrido[3′,4′:4,5]pyrrolo[1,2,3-de]quinoxalin-2(3H)-one]	21	14	–	76	53	–
O=C1CN2c3c(cccc3[C@@H]3CN(CCOc4ccc(F)cc4)CC[C@@H]32)N1 [compound 49, (6bR,10aS)-8-(2-(4-Fluorophenoxy)ethyl)-6b,7,8,9,10,10a-hexahydro-1H-pyrido[3′,4′:4,5]pyrrolo[1,2,3-de]quinoxalin-2(3H)-one]	10	24	< 0	48	–	–
O=C1CN2c3c(cccc3[C@@H]3CN(CCCCOc4ccc(F)cc4)CC[C@@H]32)N1 [compound 50, (6bR,10aS)-8-(4-(4-Fluorophenoxy)butyl)-6b,7,8,9,10,10a-hexahydro-1H-pyrido[3′,4′:4,5]pyrrolo[1,2,3-de]quinoxalin-2(3H)-one]	5.4	27	< 0	37	–	–
O=C1CN2c3c(cccc3[C@H]3CN(CCCOc4ccc(F)cc4)CC[C@H]32)N1 [compound 54, (6bS,10aR)-8-(3-(4-Fluorophenoxy)propyl)-6b,7,8,9,10,10a-hexahydro-1H-pyrido[3′,4′:4,5]pyrrolo[1,2,3-de]quinoxalin-2(3H)-one]	–	–	< 0	–	–	D1(Ki or (% Inhibition)): % inhibition [1]: 75 (50%); inhibition at 0.1 µM [1]: 50%

Reference: article PMC11181336, “Discovery of ITI-333, a Novel Orally Bioavailable Molecule Targeting Multiple Receptors for the Treatment of Pain and Other Disorders” (Journal of Medicinal Chemistry, 2024)
